Measurements published in patent publication US8420592B2, “Methods of treatment using single doses of oritavancin” (The Medicines Company, priority 2008, dated 2013).
Values after ≈ are worked out from the molar mass of the structure shown.

Key:
Streptococcus agalactiae = assay: Phase 2 cSSSI study: cure rate by baseline pathogen; assay type: in vivo; conditions: Streptococcus agalactiae at baseline
Experimental: (§1) The primary efficacy endpoint was the clinical response in the CE population at TOC, which occurred 20 to 28 days after study enrollment on Day 1. Clinical response was determined by the investigator as part of the end-of-therapy, TOC, and late follow-up procedures by assessing signs and symptoms including fever, pain, tenderness, erythema, induration, edema, purulent drainage, eschar, and devitalized tissue. A clinical response of cure, improvement, failure, or indeterminate was assigned at end-of-therapy and TOC by the investigator based on clinical signs and symptoms. At late follow-up, the investigator could assign the clinical response of relapse in addition to cure, improvement, or indeterminate. Only patients with a clinical response of cure or improvement at TOC were assessed for clinical response at late follow-up.
(§2) Cure was defined as resolution of purulent drainage, pain, edema, fever, erythema, tenderness, and induration. Serous drainage or aspirate and/or granulation tissue could be present. Improvement was defined as resolution of purulent drainage and, in the case of cellulitis, cessation of fever and pain. Residual erythema, edema, pain (in the case of wound or abscess), tenderness, and/or induration could be present as could serous drainage, granulation tissue, eschar, and/or devitalized tissue. Failure included any of the following: presence of purulent drainage (or aspirate) and/or fever; the unanticipated need for abscess drainage or removal of sutures (for treatment of infection)>48 hours after initiation of study therapy; or treatment with nonstudy systemic antibiotic having activity against gram-positive pathogen(s) for the primary infection site or use of topical antibiotics at the site of primary infection 24 hours or more after initiation of study medication therapy.
(§3) Blood and infection site cultures were obtained within three days of enrollment (often done at the time of enrollment). End-of-therapy, TOC, and late follow-up (or at early relapse) cultures were obtained from the infection site if clinically indicated. […] Specimens were cultured and pathogens were identified at each investigative site's certified laboratory. All isolated gram-positive pathogen(s) that were obtained from the infection site at baseline/randomization and up to and including the TOC time point were subcultured and sent to a central laboratory (Covance Clinical Laboratories, Indianapolis, Ind.) for confirmatory identification and susceptibility testing. In cases of discrepancy between the local and the central laboratory, central laboratory results were used.

Streptococcus pyogenes = assay: as above; assay type: in vivo; conditions: Streptococcus pyogenes at baseline
Experimental: as §1, §2, §3

Staphylococcus aureus = assay: as above; assay type: in vivo; conditions: S. aureus at baseline, TOC
Experimental: as §1, §2, §3

Enterococcus faecalis = assay: as above; assay type: in vivo; conditions: Enterococcus faecalis at baseline
Experimental: as §1, §2, §3

S. aureus = assay: MIC by broth microdilution with 0.002% polysorbate-80, baseline isolates of MITT population; assay type: cell-based; conditions: Staphylococcus aureus; all S. aureus
Experimental: as §3
(§4) At least one gram-positive organism was isolated from the infection site at baseline in 209 patients (69.2%) in the ITT population. The most commonly isolated pathogen was S. aureus, which was isolated from 87.6% (183/209) of MITT patients. MRSA was isolated in 49% (103/209) of MITT patients. The other three most common pathogens identified in the MITT population were Streptococcus pyogenes (5.7%, 12/209), Streptococcus agalactiae (3.8%, 8/209) and Enterococcus faecalis (3.8%, 8/209). The range of oritavancin minimum inhibitory concentrations (MICs) for S. aureus in the MITT population, as assessed using broth microdilution with 0.002% polysorbate-80, was 0.008 to 0.5 μg/mL.

MRSA = assay: as above; assay type: cell-based; conditions: Staphylococcus aureus; MRSA subset
Experimental: as §3, §4

MSSA = assay: as above; assay type: cell-based; conditions: Staphylococcus aureus; MSSA subset
Experimental: as §3, §4

[1] = test system: MSSA (S. aureus ATCC13709 and clinical MSSA strains); assay: Neutropenic-mouse thigh infection model; assay type: in vivo, Staphylococcus aureus; conditions: for Log kill / Mean Log CFU/thigh from baseline: 72 h; for Log kill: S. aureus ATCC13709; for Mean Log CFU/thigh from baseline: MSSA (3 strains)
Experimental: (§5) Methods: Thigh infection was established for 14 clinical SA isolates (3 MSSA and 11 MRSA; MICs 0.0015 to 2 μg/mL) in neutropenic CD-1 mice (n=3/group) with 5×10^5 colony forming units (CFU) of cells. Single intravenous doses of ORI (0.5 to 40 mg/kg) were tested against one MSSA and one MRSA strain. […] Both thighs were harvested and CFU counts were evaluated after 24 h (single doses) or 72 h (HEQ doses) treatment.
(§6) In vivo studies: All studies were performed in accordance with protocols that were approved by the Institutional Animal Care and Use Committee. Thigh infection was established for 14 clinical S. aureus isolates in neutropenic CD-1 mice (19-21 g, n=3/group) with 5×10^5 colony forming units (CFU) of cells in both thighs. In the single dose-response study, the number of bacteria/thigh was monitored 24 h post-infection (PI). In the human equivalent (HEQ) dose-ranging study, the bacterial titer was determined in mouse thighs at 2, 4, 8, 12, 24, 48 and 72 h PI. Thighs were serially diluted and plated on Baird-Parker agar plates to determine the bacterial titer. The limit of detection was 1.69 Log10 CFU/thigh. Bacterial titer decreases were calculated (compared to starting inoculum) in thighs at 72 h PI for each HEQ dose regimen of ORI.
(§7) Antibiotherapy: 1) In the single dose response study, mice were treated intravenously (IV) with ORI at doses ranging from 0.4 to 40 mg/kg at lh PI. 2) In the HEQ dose-ranging study, starting at 1 h PI, the mice received a multiple IV dose regimen to simulate human drug concentration profile. […]
(§8) Data analysis: The inhibitiory sigmoid Emax model was used to calculate the ED50 of oritavancin (dose resulting in 50% of the maximal bacterial killing) ±95% confidence interval by using the GraphPad Prism software. The statistical calculations to compare bacterial titer from each experimental group were performed according to the Mann-Whitney U test by using StatsDirect software. p-values below 0.05 were considered significant.

[2] = test system: MRSA (S. aureus NRS123 and clinical MRSA strains); assay: Neutropenic-mouse thigh infection model; assay type: in vivo, Staphylococcus aureus; conditions: for Mean Log CFU/thigh from baseline: 72 h
Experimental: as §5, §6, §7, §8

CN[C@H](CC(C)C)C(=O)N[C@H]1C(=O)N[C@@H](CC(N)=O)C(=O)N[C@H]2C(=O)N[C@H]3C(=O)N[C@H](C(=O)N[C@H](C(=O)O)c4cc(O)cc(O)c4-c4cc3ccc4O)[C@H](O[C@H]3C[C@](C)(N)[C@@H](O)[C@H](C)O3)c3ccc(c(Cl)c3)Oc3cc2cc(c3O[C@@H]2O[C@H](CO)[C@@H](O)[C@H](O)[C@H]2O[C@H]2C[C@](C)(NCc3ccc(-c4ccc(Cl)cc4)cc3)[C@@H](O)[C@H](C)O2)Oc2ccc(cc2Cl)[C@H]1O [Oritavancin, N-(4-(4-chlorophenyl)benzyl)A82846B]
% of patients cured (cure and improvement) (Streptococcus agalactiae; 200 mg daily dose): 33.3%
% of patients cured (cure and improvement) (Streptococcus agalactiae; 800 mg infrequent dose): 100%
% of patients cured (cure and improvement) (Streptococcus agalactiae; 1200 mg single dose): 100%
% of patients cured (cure and improvement) (Streptococcus pyogenes; 200 mg daily dose): 66.7%
% of patients cured (cure and improvement) (Streptococcus pyogenes; 800 mg infrequent dose): 100%
% of patients cured (cure and improvement) (Streptococcus pyogenes; 1200 mg single dose): 100%
% of patients cured (cure and improvement) (Staphylococcus aureus; 200 mg daily dose): 67.4%
% of patients cured (cure and improvement) (Staphylococcus aureus; 800 mg infrequent dose): 79.5%
% of patients cured (cure and improvement) (Staphylococcus aureus; 1200 mg single dose): 78.9%
% of patients cured (cure and improvement) (Enterococcus faecalis; 200 mg daily dose): 50.0%
% of patients cured (cure and improvement) (Enterococcus faecalis; 800 mg infrequent dose): 100%
% of patients cured (cure and improvement) (Enterococcus faecalis; 1200 mg single dose): 100%
MIC90 (S. aureus): 0.12 µg/mL (≈ 0.0669 µM)
MIC90 (MRSA): 0.12 µg/mL (≈ 0.0669 µM)
MIC90 (MSSA): 0.12 µg/mL (≈ 0.0669 µM)
Log kill ([1]; HEQ dose 200 mg): > 2 Log
Log kill ([1]; HEQ dose 400 mg): > 2 Log
Log kill ([1]; HEQ dose 1200 mg): > 2 Log
Mean Log CFU/thigh from baseline ([1]; HEQ dose 100 mg × 3 days): 1.5 Log CFU/thigh
Mean Log CFU/thigh from baseline ([1]; HEQ dose 200 mg × 3 days): −0.1 Log CFU/thigh
Mean Log CFU/thigh from baseline ([1]; HEQ dose 400 mg × 3 days): −1.6 Log CFU/thigh
Mean Log CFU/thigh from baseline ([1]; HEQ dose 1200 mg × 1 day): −2.7 Log CFU/thigh
ED50 ([1]; Staphylococcus aureus, single IV dose 1 h post-infection, 24 h readout, S. aureus ATCC13709 (MSSA), neutropenic CD-1 mice, 95% CI in brackets, read-out: ED50 (dose resulting in 50% of the maximal killing)): 5.8 mg/kg
ED50 (dose resulting in 50% of the maximal killing) ([1]; single IV dose 1 h post-infection, 24 h readout, S. aureus ATCC13709 (MSSA), neutropenic CD-1 mice, 95% CI in brackets): 5.8 (3.3-10) mg/kg
Mean Log CFU/thigh from baseline ([2]; MRSA (3 strains), HEQ dose 100 mg × 3 days): 0.8 Log CFU/thigh
Mean Log CFU/thigh from baseline ([2]; MRSA (3 strains), HEQ dose 400 mg × 3 days): −2.8 Log CFU/thigh
Mean Log CFU/thigh from baseline ([2]; MRSA (11 strains), HEQ dose 200 mg × 3 days): −0.9 Log CFU/thigh
Mean Log CFU/thigh from baseline ([2]; MRSA (11 strains), HEQ dose 1200 mg × 1 day): −2.8 Log CFU/thigh
ED50 ([2]; Staphylococcus aureus, single IV dose 1 h post-infection, 24 h readout, NRS123 (MRSA), neutropenic CD-1 mice, 95% CI in brackets, read-out: ED50 (dose resulting in 50% of the maximal killing)): 2.4 mg/kg
ED50 (dose resulting in 50% of the maximal killing) ([2]; single IV dose 1 h post-infection, 24 h readout, NRS123 (MRSA), neutropenic CD-1 mice, 95% CI in brackets): 2.4 (0.8-7.3) mg/kg
